Experimental data: US11147847B2, “Extracts from plants of the Moringaceae family and methods of making” (Rutgers, The State University of New Jersey, priority 2013, dated 2021)
pIC50: −log10 of the molar value.

Key:
[1] = In vitro gluconeogenesis: glucose production in liver cells; format: cell-based, rat; conditions: Rattus norvegicus; range of 5 concentrations, HII4E liver cells
Description: (§1) H4IIE rat hepatoma cells (CRL-1548, American Type Culture Collection, Manassas, Va.) were assayed for glucose production as previously described (21). Cell viability was measured by the 3-(4,5-Dimethyl-2-thiazolyl)-2,5-diphenyltetrazolium bromide (MTT; TCI, Portland, Oreg.) assay (22). RNA extraction, cDNA synthesis and qPCR for gene expression of PEPCK and G6P were performed as described above.

RAW 264.7 macrophages = test: MTT-based cell viability assay; conditions: concentrations tested in anti-inflammatory assays
Description: The effect of the treatments on cell viability was measured using MTT [3-(4,5-dimethyl-2-thiazolyl)-2,5-diphenyltetrazolium bromide] (TCI, Portland, Oreg.) (Mosmann, 1983). MTT (5 mg/mL) was dissolved in PBS (Cayman Chemical, Ann Arbor, Mich.), filtered through a 0.22 μm membrane and added to treated cells during the last 3-4 hours of treatment. Media were carefully aspirated and cells were dissolved in DMSO. The absorbance was read at 570 nm.

IL-1β = test: LPS-induced IL-1β gene expression in RAW 264.7 macrophages (qPCR); format: cell-based; conditions: 1 and 5 μM; LPS-induced RAW 264.7
Description: (§2) All reagents were supplied from Sigma-Aldrich Co. (St. Louis, Mo.) unless otherwise noted. RAW 264.7 macrophages (ATCC TIB-71) were maintained in Dulbecco's modified Eagle's medium (Caisson, North Logan, Utah) supplemented with 100 U/mL penicillin, 100 μg/mL streptomycin, and 10% fetal bovine serum. Cells were incubated at 37° C. in a 5% CO2 humidified atmosphere and subcultured by cell scraping. For experiments, RAW cells were plated at a density of 4×10^5 cells/mL in 24-well plates. Cells were incubated overnight (18 h), washed with warm 37° C. PBS, and medium was replaced fresh DMEM medium. […] Lipopolysaccharide (1 μg/mL) was added after 2 h incubation with treatments to elicit inflammatory responses. Cells were treated in duplicate or triplicate. After an additional 6 h incubation period, media were collected and cells were washed with PBS prior to collection in TRIzol® Reagent (Ambion, Life Technologies). […]
(§3) Total RNA was extracted from cells according to manufacturer's specifications. […] RNA integrity was evaluated by running about 1 μg of RNA on a 1% agarose gel. […]
(§4) Quantitative PCR amplifications were performed on an ABI 7300 Real-Time PCR System (Applied Biosystems) with the following thermal cycler profile: 2 minutes, 50° C.; 10 minutes, 95° C.; 15 seconds, 95° C.; 1 minute, 60° C. for the dissociation stage; 15 seconds, 95° C.; 1 minutes, 60° C.; and 15 seconds, 95° C. […]

[2] = Accelerated stability of MICs in moringa extract at 37° C. (LCMS); format: physicochemical; conditions: moringa extract stored at 37° C. for 30 days, compared to day 0
TNF-α = test: LPS-induced TNF-α gene expression in RAW 264.7 macrophages (qPCR); format: cell-based; conditions: any of the concentrations tested; LPS-induced RAW 264.7
Description: as §2, §3, §4

[3] = 1:5 ratio preparations, rotoevaporation 1 hour at 50° C., compared to freeze-dried samples
Description: Drying the 1:5 ratio preparations can be achieved by rotoevaporation, followed by freeze-drying or spray drying. […] Further concentration of MICs and removal of sugars from the extract can also be performed with solid phase-extraction (SPE).

HII4E liver cells = test: In vitro gluconeogenesis: glucose production in liver cells; format: cell-based, rat; conditions: same concentrations as SF
Description: as §1

iNOS = test: LPS-induced iNOS gene expression in RAW 264.7 macrophages (qPCR); format: cell-based; conditions: 1 and 5 μM; LPS-induced RAW 264.7
Description: as §2, §3, §4

IL-6 = test: LPS-induced IL-6 gene expression in RAW 264.7 macrophages (qPCR); format: cell-based; conditions: 5 μM; LPS-induced RAW 264.7
Description: as §2, §3, §4

| pIC50 [1] | SMILES | cytotoxicity (MTT-based cell viability) (RAW 264.7 macrophages) | mRNA expression of IL-1β (IL-1β) | degradation of MIC in moringa extract [2] | TNF-α gene expression (TNF-α) | loss of MIC under rotoevaporation conditions [3] | glucose production, activity compared to SF (HII4E liver cells) | mRNA expression of iNOS (iNOS) | IL-6 gene expression (IL-6) |
| --- | --- | --- | --- | --- | --- | --- | --- | --- | --- |
| 3.10 | CN(C)C(=N)N=C(N)N [metformin, reference compound] | – | – | – | – | – | – | – | – |
| – | CC(=O)O[C@@H]1[C@@H](O)[C@@H](O)[C@H](Oc2ccc(CN=C=S)cc2)O[C@H]1C [MIC-4, 4-[(4′-O-acetyl-α-rhamnosyloxy)benzyl]isothiocyanate] | no signs of cytotoxicity | significant reduction | ~20% | no reduction | No significant loss | superior activity to SF | significant reduction | – |
| – | C[C@@H]1O[C@@H](Oc2ccc(CN=C=S)cc2)[C@H](O)[C@H](O)[C@H]1O [MIC-1, 4-[(α-rhamnosyloxy)benzyl]isothiocyanate] | no signs of cytotoxicity | significant reduction | approximately 80% | no reduction | No significant loss | superior activity to SF | significant reduction | decrease IL-6 gene expression significantly |
